Values quoted from earlier work, collected in patent US20150314047A1, “BORON COMPOSITE SURFACE COATINGS AND THEIR APPLICATION ON IMPLANTABLE DEVICES TO ACCELERATE OSSEOUS HEALING” (Rutgers, The State University of New Jersey, priority 2014, published 2015).
Like-named read-outs stand apart in the source and are kept apart here.

Tests used:
[1] = tested on: human origin cultured cells
[2] = tested on: pre-osteoblastic cells; settings: 0.1, 1, 10, and 100 ng/mL boron concentrations
[3] = tested on: axial skeleton; settings: boron administered at several concentrations

**Q.** With cubic boron nitride as the compound, how does the “Effect on cell survival” value [1] read?
**A.** The value was “did not affect cell survival”.

**Q.** With `[Co]` [cobalt] as the compound, how does the “Effect on cell survival” value ([1]; even at reasonably high concentrations) read?
**A.** Its value is “negatively affected cell survival”.

**Q.** With `[B]` [boron] as the compound, how does the “Bone Morphogenic Proteins (BMPs)-4, -6, and -7” value [2] read?
**A.** The value was “increases”.

**Q.** What about the “Higher resistance to vertebral crushing force” value [3] of the same compound?
**A.** Its value is 10%.
